Results as given in patent US20250073348A1, “CAMPTOTHECIN CONJUGATES” (priority 2018, published 2025).

How the values were obtained:
DEL = test: In vitro cytotoxicity, CellTiter-Glo, 96 h; type: cell-based; settings: Table 6
Description: (§1) In vitro potency was assessed on multiple cancer cell lines. All cell lines were authenticated by STR profiling at IDEXX Bioresearch and cultured for no more than 2 months after resuscitation. Cells cultured in log-phase growth were seeded for 24 hours in 96-well plates containing 150 μl RPMI 1640 supplemented with 20% FBS. Serial dilutions of antibody-drug conjugates in cell culture media were prepared at 4× working concentrations, and 50 μl of each dilution was added to the 96-well plates. Following addition of test articles, cells were incubated with test articles for 4 days at 37° C. After 96 hours, growth inhibition was assessed by CellTiter-Glo® (Promega, Madison, WI) and luminescence was measured on a plate reader. The EC50 value, determined in triplicate, is defined here as the concentration that results in 50% reduction in cell growth relative to untreated controls.
(§2) In the following Tables IC50 values for ADCs and CPT free drugs are given in ng/mL and […] concentrations, respectively, with parenthetic values representing percent cells remaining at the highest concentration tested (1000 ng/mL for ADCs and 1 μM for CPT free compound, unless otherwise indicated) relative to untreated cells. Cell viability was determined by CellTiter-Glo staining after 96 h exposure to ADC. ND=Not Determined. […]

[1] = tested on: DEL-BVR (DEL brentuximab vedotin resistant line); test: In vitro cytotoxicity on MDR+ line, CellTiter-Glo, 96 h; type: cell-based; settings: Table 6
Description: as §1, §2

[2] = 1000 ng/mL, relative to untreated cells

Substance: Ag2-vcMMAE (8): vcMMAE conjugate on Ag2; "Ag2 refers to cAC10, which targets the CD30 antigen"
- percent cells remaining at the highest dose tested, DEL (DEL; [2]): 1%
- IC50 DEL (DEL; Ag2(+) parental DEL, 96 h): 0.0005 µg/mL
- percent cells remaining at the highest dose tested, DEL/BVR [1, 2]: 93%
- IC50 DEL/BVR ([1]; Ag2(+), MDR(+) DEL-BVR, 96 h): >1 µg/mL
